pIC50: −log10 of the molar value.

The assay addresses T1, hM5 (Homo sapiens, UniProt P08912).
T1 construct: expressed in transfected cells
T1 sequence (P08912 1-532): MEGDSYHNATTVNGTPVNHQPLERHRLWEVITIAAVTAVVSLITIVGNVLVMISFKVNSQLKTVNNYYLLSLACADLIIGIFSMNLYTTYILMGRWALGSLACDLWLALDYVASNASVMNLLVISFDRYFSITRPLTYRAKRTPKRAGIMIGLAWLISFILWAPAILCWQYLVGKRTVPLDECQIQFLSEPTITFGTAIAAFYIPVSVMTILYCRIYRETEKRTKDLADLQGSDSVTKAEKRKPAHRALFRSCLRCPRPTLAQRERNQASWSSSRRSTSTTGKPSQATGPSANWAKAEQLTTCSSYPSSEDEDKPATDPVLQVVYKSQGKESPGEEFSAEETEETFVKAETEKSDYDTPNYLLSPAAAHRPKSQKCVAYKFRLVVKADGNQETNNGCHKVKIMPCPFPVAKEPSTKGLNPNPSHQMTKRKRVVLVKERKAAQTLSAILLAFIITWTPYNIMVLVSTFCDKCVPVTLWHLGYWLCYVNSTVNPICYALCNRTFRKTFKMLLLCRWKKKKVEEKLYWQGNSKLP
The assay can be described thus: Calcium mobilization concentration-response (IC50 vs EC80 acetylcholine), CHO hM5. The class given is cell-based. Particulars: CELL LINE hM5; vs EC80 acetylcholine; read-out: IC50. An outline of the steps: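 CHO cells stably expressing hM5, dye-loaded, in HBSS/20 mM HEPES/2.5 mM probenecid, pH 7.4. Compounds were pre-incubated 140 s before an EC80 acetylcholine challenge, with calcium flux read kinetically.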
In general terms: Calcium assays in cells follow changes in intracellular calcium, usually with a dye or a luminescent sensor.
For the molecule `[2H]c1nc2cc(Cl)c(C3=CCN(S(=O)(=O)c4cnc(C)o4)CC3)cn2n1` [Compound 610, 5-((4-(7-chloro-[1,2,4]triazolo[1,5-a]pyridin-6-yl-2-d)-3,6-dihydropyridin-1(2H)-yl)sulfonyl)-2-methyloxazole], the pIC50 is 7.40.
Turning to `[2H]c1nc2cc(Cl)c(C3=CCN(S(=O)(=O)c4cnc(C)s4)CC3)cn2n1` [Compound 611, 5-((4-(7-chloro-[1,2,4]triazolo[1,5-a]pyridin-6-yl-2-d)-3,6-dihydropyridin-1(2H)-yl)sulfonyl)-2-methylthiazole], the pIC50 was 7.01.
Then `[2H]C([2H])([2H])Oc1c(S(=O)(=O)N2CCC(c3cn4ncnc4cc3C)CC2)cnn1C` [Compound 612, 6-(1-((5-(methoxy-d3)-1-methyl-1H-pyrazol-4-yl)sulfonyl)piperidin-4-yl)-7-methyl-[1,2,4]triazolo[1,5-a]pyridine], with 7.74; and `[2H]C([2H])([2H])Oc1c(S(=O)(=O)N2CCC(c3cn4ncnc4cc3Cl)CC2)cnn1C` [Compound 613, 7-chloro-6-(1-((5-(methoxy-d3)-1-methyl-1H-pyrazol-4-yl)sulfonyl)piperidin-4-yl)-[1,2,4]triazolo[1,5-a]pyridine], with 7.66.
In the case of `[2H]C([2H])([2H])Oc1c(S(=O)(=O)N2CCC(c3cn4ncnc4c(F)c3C)CC2)cnn1C` [Compound 614, 8-fluoro-6-(1-((5-(methoxy-d3)-1-methyl-1H-pyrazol-4-yl)sulfonyl)piperidin-4-yl)-7-methyl-[1,2,4]triazolo[1,5-a]pyridine] it was 7.23; in that of `[2H]C([2H])([2H])Oc1c(S(=O)(=O)N2CCC(c3cn4ncnc4cc3C(F)(F)F)CC2)cnn1C` [Compound 615, 6-(1-((5-(methoxy-d3)-1-methyl-1H-pyrazol-4-yl)sulfonyl)piperidin-4-yl)-7-(trifluoromethyl)-[1,2,4]triazoto[1,5-a]pyridine], 6.94.
Then `[2H]C([2H])([2H])Oc1c(S(=O)(=O)N2CCC(c3cn4ncnc4cc3F)CC2)cnn1C` [Compound 616, 7-fluoro-6-(1-((5-(methoxy-d3)-1-methyl-1H-pyrazol-4-yl)sulfonyl)piperidin-4-yl)-[1,2,4]triazolo[1,5-a]pyridine], with 6.18; and `[2H]C([2H])([2H])Oc1c(S(=O)(=O)N2CCC(c3nn4ncnc4cc3C)CC2)cnn1C` [Compound 617, 6-(1-((5-(methoxy-d3)-1-methyl-1H-pyrazol-4-yl)sulfonyl)piperidin-4-yl)-7-methyl-[1,2,4]triazolo[1,5-b]pyridazine], with 5.70; and `[2H]C1([2H])CC(c2cn3ncnc3cc2Cl)CC([2H])([2H])N1S(=O)(=O)c1cnn(C)c1CC#N` [Compound 621, 2-(4-((4-(7-chloro-[1,2,4]triazolo[1,5-a]pyridin-6-yl)piperidin-1-yl-2,2,6,6-d4)sulfonyl)-1-methyl-1H-pyrazol-5-yl)acetonitrile], with 7.37.
`Cc1cc2ncnn2cc1C1CCN(S(=O)(=O)c2cnn(C)c2N2CCOCC2)CC1` [Compound 622, 4-(1-Methyl-4-((4-(7-methyl-[1,2,4]triazolo[1,5-a]pyridin-6-yl)piperidin-1-yl)sulfonyl)-1H-pyrazol-5-yl)morpholine]: the negative logarithm of the IC50 (pIC50) was 5.70.
As to `Cc1ncc(S(=O)(=O)N2CCC(c3cn4ncnc4cc3CF)CC2)o1` [Compound 623, 5-((4-(7-(fluoromethyl)-[1,2,4]triazolo[1,5-a]pyridin-6-yl)piperidin-1-yl)sulfonyl)-2-methyloxazole], the pIC50 is 6.61.

In general, pIC50 refers to the negative decadic logarithm of the IC50, by convention in mol/L.

The values above are taken from patent US20230183237A1, “COMPETITIVE AND NONCOMPETITIVE INHIBITORS OF THE MUSCARINIC ACETYLCHOLINE RECEPTOR M5” (Vanderbilt University, priority 2020, published 2023).
